For the assay, the target named is T1, AfLPMO16 (Aspergillus fumigatus, UniProt A0A7D5FGU2).
T1 sequence (A0A7D5FGU2 20-290 limits assumed): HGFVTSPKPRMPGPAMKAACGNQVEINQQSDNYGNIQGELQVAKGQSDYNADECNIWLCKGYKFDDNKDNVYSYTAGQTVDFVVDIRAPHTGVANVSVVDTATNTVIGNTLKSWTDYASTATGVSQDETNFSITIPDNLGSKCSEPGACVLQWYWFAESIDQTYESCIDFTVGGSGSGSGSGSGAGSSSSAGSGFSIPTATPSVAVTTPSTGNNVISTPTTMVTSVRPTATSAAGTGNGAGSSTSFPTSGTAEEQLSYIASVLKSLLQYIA
Nature of the assay: spectrophotometric 1-coerulignone formation at […] nm, Lineweaver-Burk plot. Type of assay: biochemical. As to conditions: 5 uM hydrogen peroxide as co-substrate, 100 mM phosphate buffer pH 6.0, 30 C.

Experimental findings from paper doi:10.1101/2020.04.24.059154v2 (biorxiv, 2021) are described below.

Each structure is given as a SMILES string.

In general, Km refers to the concentration of substrate that gives half-maximal velocity. Regarding `COc1cccc(OC)c1O` [2,6-dimethoxyphenol], the Km was 5.4 mM.
